Laboratory results as given in article PMC9299836 (eLife, 2022).
Where “and” joins values, the source holds several entries; their conditions need not be identical. Equal values may be shown once.

Key:
[1] = molecular target: mGluR2 (Mus musculus, UniProt Q14BI2, INS715F); assay: Live-cell FRET, azi-ECL2 (7TM domain, extracellular loop 2) sensor in HEK293T cells; settings: for Mean normalized azi-ECL2 FRET response: glutamate + 10μM modulator, maximal response normalized to 1mM glutamate;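 on all read-outs here: Cy3/Cy5 click-labeled sensor, whole-membrane ROIs per cell, apparent FRET after bleed-through correction, ΔFRET as treatment minus pre-treatment signal, at room temperature, at least three biological replicates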
mGluR2 (Mus musculus, UniProt Q14BI2, INS715F), sequence (Q14BI2 with tags, fused parts or gaps INS715F): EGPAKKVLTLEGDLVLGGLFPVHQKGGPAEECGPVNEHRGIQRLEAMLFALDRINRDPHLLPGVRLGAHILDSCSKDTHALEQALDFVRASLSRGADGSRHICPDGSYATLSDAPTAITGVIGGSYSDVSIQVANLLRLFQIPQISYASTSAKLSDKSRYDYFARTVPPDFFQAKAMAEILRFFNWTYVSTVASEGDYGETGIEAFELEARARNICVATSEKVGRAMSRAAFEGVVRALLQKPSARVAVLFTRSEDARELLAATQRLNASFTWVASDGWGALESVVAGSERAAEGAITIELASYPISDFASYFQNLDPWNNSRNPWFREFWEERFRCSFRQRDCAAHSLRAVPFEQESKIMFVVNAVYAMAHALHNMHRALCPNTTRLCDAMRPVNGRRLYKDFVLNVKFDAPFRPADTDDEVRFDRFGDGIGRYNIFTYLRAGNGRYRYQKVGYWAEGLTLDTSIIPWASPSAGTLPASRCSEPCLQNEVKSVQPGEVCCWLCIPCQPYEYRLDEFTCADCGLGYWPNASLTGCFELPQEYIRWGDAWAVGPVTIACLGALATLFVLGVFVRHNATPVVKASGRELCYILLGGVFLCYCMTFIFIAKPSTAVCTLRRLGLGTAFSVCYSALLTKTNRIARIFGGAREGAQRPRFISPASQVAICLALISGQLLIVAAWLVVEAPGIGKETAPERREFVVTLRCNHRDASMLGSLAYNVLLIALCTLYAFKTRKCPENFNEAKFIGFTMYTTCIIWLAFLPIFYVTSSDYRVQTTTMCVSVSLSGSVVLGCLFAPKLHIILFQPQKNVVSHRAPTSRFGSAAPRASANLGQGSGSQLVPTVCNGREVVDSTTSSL

[2] = molecular target: mGluR2 (Mus musculus, UniProt Q14BI2); assay: Live-cell FRET, SNAP-m2 (VFT domain) inter-subunit sensor in HEK293T cells; settings: for Mean normalized FRET response, SNAP-m2 NAM DRC: glutamate + 10μM modulator, maximal response normalized to 1mM glutamate;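 on all read-outs here: apparent FRET efficiency from whole-membrane ROIs of single cells, corrected for donor bleed-through and background, ΔFRET as treatment minus pretreatment signal, recorded at room temperature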
mGluR2 (Mus musculus, UniProt Q14BI2), sequence (Q14BI2 19-872): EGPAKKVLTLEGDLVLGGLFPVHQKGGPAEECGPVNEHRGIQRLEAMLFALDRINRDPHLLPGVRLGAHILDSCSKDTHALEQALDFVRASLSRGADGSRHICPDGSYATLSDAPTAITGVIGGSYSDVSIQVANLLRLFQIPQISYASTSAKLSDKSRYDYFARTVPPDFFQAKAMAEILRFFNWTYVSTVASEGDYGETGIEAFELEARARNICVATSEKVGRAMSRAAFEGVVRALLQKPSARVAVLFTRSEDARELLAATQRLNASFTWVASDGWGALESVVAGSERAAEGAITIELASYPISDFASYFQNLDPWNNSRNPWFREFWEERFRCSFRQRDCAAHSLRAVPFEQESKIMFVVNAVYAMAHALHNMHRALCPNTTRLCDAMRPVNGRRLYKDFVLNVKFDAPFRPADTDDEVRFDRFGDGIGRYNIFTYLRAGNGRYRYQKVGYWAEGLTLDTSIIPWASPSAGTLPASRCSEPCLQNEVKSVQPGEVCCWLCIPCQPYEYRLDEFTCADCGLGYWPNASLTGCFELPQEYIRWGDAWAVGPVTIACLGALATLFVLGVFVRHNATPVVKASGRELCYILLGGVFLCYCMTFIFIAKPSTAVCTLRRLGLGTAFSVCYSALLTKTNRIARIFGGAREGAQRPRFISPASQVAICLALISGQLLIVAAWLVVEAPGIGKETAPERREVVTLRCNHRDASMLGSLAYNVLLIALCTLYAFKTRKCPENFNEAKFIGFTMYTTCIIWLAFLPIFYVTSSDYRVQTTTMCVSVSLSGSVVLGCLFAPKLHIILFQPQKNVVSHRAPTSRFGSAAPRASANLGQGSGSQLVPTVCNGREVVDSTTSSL

[3] = molecular target: mGluR2 (Mus musculus, UniProt Q14BI2, A548F); assay: Live-cell FRET, azi-CRD (cysteine-rich domain) sensor in HEK293T cells; settings: for azi-CRD normalized FRET response, Mean / azi-CRD normalized FRET response, individual cell: Glutamate + 10μM modulator (NAM); for azi-CRD normalized FRET response, Mean: maximal response normalized to 1mM glutamate; for azi-CRD normalized FRET response, individual cell: single-cell replicate
mGluR2 (Mus musculus, UniProt Q14BI2, A548F), sequence (Q14BI2 19-872 A548F): as the sequence (Q14BI2 19-872) above, with A530F counted along it

[4] = 10μM MNI-137, ([1 mM glutamate + modulator] - [1 mM glutamate]) × 100

MNI-137
azi-ECL2 - ΔEfficacy, Mean ΔEfficacy [1, 4]: -22.0861
Mean ΔPotency ([1]; 10μM modulator, (([modulator + glutamate]EC50 – [glutamate] EC50)/[glutamate] EC50) × 100): 179.936
ΔPotency, individual cell responses ([1]; 10μM modulator, single cells, (([modulator + glutamate]EC50 – [glutamate] EC50)/[glutamate] EC50) × 100): 208.526 and 269.842 and 265.754 and 289.307 and 19.9066 and 99.1307 and 118.401 and 168.622
Mean max response (normalized max ΔFRET) ([1]; azi-ECL2, 1 mM glutamate + 10 μM modulator, normalized to 1 mM glutamate): 0.78
Hill slope of glutamate titration ([1]; azi-ECL2 sensor, + 10 μM modulator): 1.32
Mean normalized azi-ECL2 FRET response ([1]; log[Glutamate] (M) -3): 0.7791
Mean normalized azi-ECL2 FRET response ([1]; log[Glutamate] (M) -4.1549): 0.6793
Mean normalized azi-ECL2 FRET response ([1]; log[Glutamate] (M) -4.52288): 0.5808
Mean normalized azi-ECL2 FRET response ([1]; log[Glutamate] (M) -5): 0.314
Mean normalized azi-ECL2 FRET response ([1]; log[Glutamate] (M) -5.82391): 0.01822
Mean normalized azi-ECL2 FRET response ([1]; log[Glutamate] (M) -6.52288): 0
Mean normalized azi-ECL2 FRET response ([1]; log[Glutamate] (M) -7): 0
Mean normalized azi-ECL2 FRET response ([1]; log[Glutamate] (M) -7.69897): 0
Mean normalized azi-ECL2 FRET response ([1]; log[Glutamate] (M) -4.69897): 0.4672
SNAP-m2 - ΔEfficacy, Mean ΔEfficacy [2, 4]: -14.5253
SNAP-m2 - ΔEfficacy, individual cell responses ([2]; 10μM MNI-137, single cells): -10.7213 and -26.7573 and -13.8479 and -17.3754 and -14.1858 and -21.1325 and -12.0197 and -12.3419 and -6.834 and -6.212 and -2.3686 and -0.3026 and -3.79 and -23.2696 and -18.431 and -18.5097 and -23.731 and -16.2088 and -24.4772 and -17.7281 and -7.524 and -21.7885
Mean max response (normalized max ΔFRET) ([2]; SNAP-m2, 1 mM glutamate + 10 μM modulator, normalized to 1 mM glutamate): 0.85
Mean ΔPotency ([2]; SNAP-m2, 10μM modulator, (([modulator + glutamate]EC50 – [glutamate] EC50)/[glutamate] EC50) × 100): 44.8085
Mean ΔEfficacy ([2]; SNAP-m2, 10μM modulator, ([1 mM glutamate + modulator] - [1 mM glutamate]) × 100): -14.5253
Hill slope of glutamate titration ([2]; SNAP-m2 sensor, + 10 μM modulator): –1.61
Live-cell FRET max response normalized to 1mM glutamate ([2]; SNAP-m2 sensor, Glutamate + 10μM MNI-137, individual values (N=22)): 0.8581 and 0.7887 and 0.8798 and 0.8766 and 0.9317 and 0.9379 and 0.9763 and 0.997 and 0.9621 and 0.7673 and 0.8157 and 0.8149 and 0.7627 and 0.8379 and 0.7552 and 0.8227 and 0.9248 and 0.7821 and 0.8928 and 0.7324 and 0.8615 and 0.8263
Mean normalized FRET response, SNAP-m2 NAM DRC ([2]; log[Glutamate] (M) -3): -0.8548
Mean normalized FRET response, SNAP-m2 NAM DRC ([2]; log[Glutamate] (M) -4.1549): -0.777
Mean normalized FRET response, SNAP-m2 NAM DRC ([2]; log[Glutamate] (M) -4.52288): -0.6231
Mean normalized FRET response, SNAP-m2 NAM DRC ([2]; log[Glutamate] (M) -5): -0.2568
Mean normalized FRET response, SNAP-m2 NAM DRC ([2]; log[Glutamate] (M) -5.82391): -0.04212
Mean normalized FRET response, SNAP-m2 NAM DRC ([2]; log[Glutamate] (M) -6.52288): 0
Mean normalized FRET response, SNAP-m2 NAM DRC ([2]; log[Glutamate] (M) -7): 0
Mean normalized FRET response, SNAP-m2 NAM DRC ([2]; log[Glutamate] (M) -7.69897): 0
Mean normalized FRET response, SNAP-m2 NAM DRC ([2]; log[Glutamate] (M) -4.69897): -0.4828
azi-CRD - ΔEfficacy, Mean ΔEfficacy [3, 4]: -14.0141
azi-CRD - ΔEfficacy, individual cell responses ([3]; 10μM MNI-137, single cells): -19.4456 and -7.384 and -10.1516 and 1.621 and -9.317 and -10.1717 and -14.3919 and -15.5722 and -14.8125 and -10.0435 and -13.9489 and -17.5047 and -9.853 and -8.072 and -15.0625 and -34.4877 and -19.6812 and -23.9757
azi-CRD normalized FRET response, Mean ([3]; log[Glutamate] (M) -3): 0.8599
azi-CRD normalized FRET response, Mean ([3]; log[Glutamate] (M) -4.52288): 0.6022
azi-CRD normalized FRET response, Mean ([3]; log[Glutamate] (M) -5): 0.3809
azi-CRD normalized FRET response, Mean ([3]; log[Glutamate] (M) -5.39794): 0.1786
azi-CRD normalized FRET response, individual cell ([3]; log[Glutamate] (M) -5.39794): 0.1624 and 0.1634 and 0.1646 and 0.1674 and 0.1243 and 0.1237 and 0.1526 and 0.2062 and 0.1399 and 0.1742 and 0.1692 and 0.2509 and 0.1433 and 0.1979 and 0.2166 and 0.2171 and 0.2594 and 0.1653 and 0.2159 and 0.1911 and 0.1708 and 0.1695 and 0.153
azi-CRD normalized FRET response, Mean ([3]; log[Glutamate] (M) -5.82391): 0.06813
azi-CRD normalized FRET response, individual cell ([3]; log[Glutamate] (M) -5.82391): 0.04445 and 0.05893 and 0.04553 and 0.06348 and 0.04636 and 0.04299 and 0.07924 and 0.06124 and 0.04784 and 0.04123 and 0.06211 and 0.06632 and 0.1186 and 0.05696 and 0.08797 and 0.1273 and 0.06713 and 0.0889 and 0.0871 and 0.09832 and 0.05971 and 0.05629 and 0.07113 and 0.07112 and 0.06208 and 0.06258 and 0.06477
azi-CRD normalized FRET response, Mean ([3]; log[Glutamate] (M) -6.52288): 0.03124
azi-CRD normalized FRET response, individual cell ([3]; log[Glutamate] (M) -6.52288): 0.0188 and 0.01987 and 0.01609 and 0.02693 and 0.05479 and 0.05033 and 0.00719 and 0.0225 and 0.06219 and 0.01914 and 0.02051 and 0.02647 and 0.05278 and 0.03127 (2×) and 0.02714 and 0.04081 and 0.0402 and 0.04434 and 0.02897 and 0.03138 and 0.03664 and 0.02295
azi-CRD normalized FRET response, Mean ([3]; log[Glutamate] (M) -7): 0
azi-CRD normalized FRET response, individual cell ([3]; log[Glutamate] (M) -7): 0
